Test results: patent publication US11708348B2, “Protease inhibitors for treatment of coronavirus infections” (The Scripps Research Institute, priority 2021, dated 2023)
Where two headings read alike, the source gives them in different places.

Tested on: SARS-CoV-2 strain USA-WA1/2020
Test: microbe, parasite or virus in culture
Format: cell-based
Settings: Severe acute respiratory syndrome coronavirus 2, HeLa-ACE2, 24 h, read-out: EC50, uM (Hela)
[1] = HeLa-ACE2 cells, SARS-CoV-2 infection, 24 h, class symbols

## CC(C)C[C@H](NC(=O)C(=O)Nc1c(C2CC2)cccc1C1CC1)C(=O)N[C@@H](C[C@@H]1CCNC1=O)C(=O)COC(F)(F)F [Compound 185, N1-(2,6-dicyclopropylphenyl)-N2-((S)-4-methyl-1-oxo-1-(((S)-3-oxo-1-((S)-2-oxopyrrolidin-3-yl)-4-(trifluoromethoxy)butan-2-yl)amino)pentan-2-yl)oxalamide]
[1]
  EC50: < 0.05 µM

## Cc1ccc(C2(NC(=O)C(=O)N[C@@H](CC(C)C)C(=O)N[C@@H](C[C@@H]3CCNC3=O)C(=O)COC(F)(F)F)CC2)cc1 [Compound 186, N1-((S)-4-methyl-1-oxo-1-(((S)-3-oxo-1-((S)-2-oxopyrrolidin-3-yl)-4-(trifluoromethoxy)butan-2-yl)amino)pentan-2-yl)-N2-(l-(p-tyolyl)-cyclopropyl)oxalamide]
[1]
  EC50: < 0.05 µM

## CC(C)C[C@H](NC(=O)c1cc2ccncc2[nH]1)C(=O)N[C@@H](C[C@@H]1CCNC1=O)C(=O)COC(F)(F)F [Compound 187, N-((S)-4-methyl-1-oxo-1-(((S)-3-oxo-1-((S)-2-oxopyrrolidin-3-yl)-4-(trifluoromethoxy)butan-2-yl)amino)pentan-2-yl)-1H-pyrrolo[2,3-c]pyridine-2-carboxamide]
[1]
  EC50: 0.05 to 0.2 µM

## COc1cccc(NC(=O)C(=O)N[C@@H](CC(C)C)C(=O)N[C@@H](C[C@@H]2CCNC2=O)C(=O)COC(F)(F)F)c1 [Compound 188, N1-(3-methoxyphenyl)-N2-((S)-4-methyl-1-oxo-1-(((S)-3-oxo-1-((S)-2-oxopyrrolidin-3-yl)-4-(trifluoromethoxy)butan-2-yl)amino)pentan-2-yl)oxalamide]
[1]
  EC50: < 0.05 µM

## CC(C)C[C@H](NC(=O)C1CCCNC1=O)C(=O)N[C@@H](C[C@@H]1CCNC1=O)C(=O)COC(F)(F)F (stereo partly drawn) [Compound 190, N-((S)-4-methyl-1-oxo-1-(((S)-3-oxo-1-((S)-2-oxopyrrolidin-3-yl)-4-(trifluoromethoxy)butan-2-yl)amino)pentan-2-yl)-2-oxopiperidine-3-carboxamide]
HeLa-ACE2 cells, SARS-CoV-2 infection, 24 h, cells given as a bound
  EC50: > 1 µM

## CC(C)C[C@H](NC(=O)C(=O)NC12CC(C1)C2)C(=O)N[C@@H](C[C@@H]1CCNC1=O)C(=O)COC(F)(F)F [Compound 191, N1-(bicyclo[1.1.1]-pentan-1-yl)-N2-((S)-4-methyl-1-oxo-1-(((S)-3-oxo-1-((S)-2-oxopyrrolidin-3-yl)-4-(trifluoromethoxy)butan-2-yl)amino)pentan-2-yl)oxalamide]
[1]
  EC50: < 0.05 µM

## O=C(N[C@@H](CC1CC1)C(=O)N[C@@H](C[C@@H]1CCNC1=O)C(=O)COC(F)(F)F)c1cc(-c2ccccc2)n[nH]1 [Compound 192, N-((S)-3-cyclopropyl-1-oxo-1-(((S)-3-oxo-1-((S)-2-oxopyrrolidin-3-yl)-4-(trifluoromethoxy)butan-2-yl)amino)propan-2-yl)-3-phenyl-1H-pyrazole-5-carboxamide]
[1]
  EC50: 0.05 to 0.2 µM

## COCC(C)(C)NC(=O)C(=O)N[C@@H](CC(C)C)C(=O)N[C@@H](C[C@@H]1CCNC1=O)C(=O)COC(F)(F)F [Compound 193, N1-(1-methoxy-2-methylpropan-2-yl)-N2-((S)-4-methyl-1-oxo-1-(((S)-3-oxo-1-((S)-2-oxopyrrolidin-3-yl)-4-(trifluoromethoxy)butan-2-yl)amino)pentan-2-yl)oxalamide]
[1]
  EC50: < 0.05 µM

## CC(C)C[C@H](NC(=O)c1cc2cccnc2[nH]1)C(=O)N[C@@H](C[C@@H]1CCNC1=O)C(=O)COC(F)(F)F [Compound 194, N-((S)-4-methyl-1-oxo-1-(((S)-3-oxo-1-((S)-2-oxopyrrolidin-3-yl)-4-(trifluoromethoxy)butan-2-yl)amino)pentan-2-yl)-1H-pyrrolo[2,3-b]pyridine-2-carboxamide]
[1]
  EC50: < 0.05 µM

## COc1cccc2[nH]c(C(=O)N[C@@H](CC(C)C)C(=O)N[C@@H](CC3CCNC3=O)C(=O)COP(=O)(c3ccccc3)c3ccccc3)cc12 (stereo partly drawn) [Compound 195, (3S)-3-((S)-2-(4-methoxy-1H-indole-2-carboxamido)-4-methylpentanamido)-2-oxo-4-(2-oxopyrrolidin-3-yl)butyl diphenylphosphinate]
  EC50: 0.05 to 0.2 µM

## CC(C)C[C@H](NC(=O)C(=O)N1CCCc2ccccc21)C(=O)N[C@@H](CC1CCNC1=O)C(=O)COC(F)(F)F (stereo partly drawn) [Compound 196, (2S)-2-(2-(3,4-dihydroquinolin-1(2H)-yl)-2-oxoacetamido)-4-methyl-N-((2S)-3-oxo-1-(2-oxopyrrolidin-3-yl)-4-(trifluoromethoxy)butan-2-yl)pentanamide]
[1]
  EC50: < 0.05 µM

## CC(C)C[C@H](NC(=O)C(=O)Nc1ccccc1F)c1cn([C@@H](C[C@@H]2CCNC2=O)C(=O)COc2c(F)c(F)cc(F)c2F)nn1 [Compound 197, N1-(2-fluorophenyl)-N2-((S)-3-methyl-1-(1-((S)-3-oxo-1-((S)-2-oxopyrrolidin-3-yl)-4-(2,3,5,6-tetrafluorophenoxy)butan-2-yl)-1H-1,2,3-triazol-4-yl)butyl)oxalamide]
[1]
  EC50: 0.5 to 1 µM

## COc1cccc2[nH]c(C(=O)N[C@@H](CC(C)C)C(=O)N[C@@H](C[C@@H]3CCNC3=O)C(=O)COC(F)F)cc12 [Compound 198, N—((S)-1-(((S)-4-(difluoromethoxy)-3-oxo-1-((S)-2-oxopyrrolidin-3-yl)butan-2-yl)amino)-4-methyl-1-oxopentan-2-yl)-4-methoxy-1H-indole-2-carboxamide]
[1]
  EC50: 0.2 to 0.5 µM

## CC(C)C[C@H](NC(=O)OCc1cccc(Cl)c1)C(=O)N[C@@H](C[C@@H]1CCNC1=O)C(=O)COC(F)(F)F [Compound 199, 3-chlorobenzyl ((S)-4-methyl-1-oxo-1-(((S)-3-oxo-1-((S)-2-oxopyrrolidin-3-yl)-4-(trifluoromethoxy)butan-2-yl)amino)pentan-2-yl)carbamate]
[1]
  EC50: < 0.05 µM

## CC(C)C[C@H](NC(=O)c1cc2cnccc2[nH]1)C(=O)N[C@@H](C[C@@H]1CCNC1=O)C(=O)COC(F)(F)F [Compound 200, N-((S)-4-methyl-1-oxo-1-(((S)-3-oxo-1-((S)-2-oxopyrrolidin-3-yl)-4-(trifluoromethoxy)butan-2-yl)amino)pentan-2-yl)-1H-pyrrolo[3,2-c]pyridine-2-carboxamide]
[1]
  EC50: 0.2 to 0.5 µM

## O=C(N[C@@H](CC1CC1)C(=O)N[C@@H](C[C@@H]1CCNC1=O)C(=O)COC(F)(F)F)c1nc2ccccc2o1 [Compound 201, N-((S)-3-cyclopropyl-1-oxo-1-(((S)-3-oxo-1-((S)-2-oxopyrrolidin-3-yl)-4-(trifluoromethoxy)butan-2-yl)amino)propan-2-yl)benzo[d]oxazole-2-carboxamide]
[1]
  EC50: < 0.05 µM

## CC(C)C[C@H](NC(=O)c1cn2ccccc2n1)C(=O)N[C@@H](C[C@@H]1CCNC1=O)C(=O)COC(F)(F)F [Compound 202, N-((S)-4-methyl-1-oxo-1-(((S)-3-oxo-1-((S)-2-oxopyrrolidin-3-yl)-4-(trifluoromethoxy)butan-2-yl)amino)pentan-2-yl)imidazo[1,2-a]pyridine-2-carboxamide]
[1]
  EC50: 0.05 to 0.2 µM

## CC(C)C[C@H](NC(=O)c1cn2ncccc2n1)C(=O)N[C@@H](C[C@@H]1CCNC1=O)C(=O)COC(F)(F)F [Compound 203, N-((S)-4-methyl-1-oxo-1-(((S)-3-oxo-1-((S)-2-oxopyrrolidin-3-yl)-4-(trifluoromethoxy)butan-2-yl)amino)pentan-2-yl)imidazo[1,2-b]pyridazine-2-carboxamide]
[1]
  EC50: 0.05 to 0.2 µM

## CC(C)C[C@H](NC(=O)C1Cc2ccccc2N1)C(=O)N[C@@H](C[C@@H]1CCNC1=O)C(=O)COC(F)(F)F (stereo partly drawn) [Compound 204, N-((S)-4-methyl-1-oxo-1-(((S)-3-oxo-1-((S)-2-oxopyrrolidin-3-yl)-4-(trifluoromethoxy)butan-2-yl)amino)pentan-2-yl)indoline-2-carboxamide]
[1]
  EC50: 0.05 to 0.2 µM

## CC(C)C[C@H](NC(=O)C(=O)NC1CC(F)(F)C1)C(=O)N[C@@H](C[C@@H]1CCNC1=O)C(=O)COC(F)(F)F [Compound 205, Nl-(3,3-difluorocyclobutyl)-N2-((S)-4-methyl-1-oxo-1-(((S)-3-oxo-1-((S)-2-oxopyrrolidin-3-yl)-4-(trifluoromethoxy)butan-2-yl)amino)pentan-2-yl)oxalamide]
[1]
  EC50: < 0.05 µM

## Cc1ccccc1NC(=O)C(=O)N[C@@H](CC(C)C)C(=O)N[C@@H](C[C@@H]1CCNC1=O)C(=O)COC(F)(F)F [Compound 206, N^1—((S)-4-methyl-1-oxo-1-(((S)-3-oxo-1-((S)-2-oxopyrrolidin-3-yl)-4-(trifluoromethoxy)butan-2-yl)amino)pentan-2-yl)-N^2-(o-tolyl)oxalamide]
[1]
  EC50: < 0.05 µM

## CC(C)C[C@H](NC(=O)[C@H](O)Cc1ccccc1)C(=O)N[C@@H](C[C@@H]1CCNC1=O)C(=O)COC(F)(F)F [Compound 207, (S)-2-((R)-2-hydroxy-3-phenylpropanamido)-4-methyl-N-((S)-3-oxo-1-((S)-2-oxopyrrolidin-3-yl)-4-(trifluoromethoxy)butan-2-yl)pentanamide]
[1]
  EC50: < 0.05 µM

## CC(C)C[C@H](NC(=O)[C@H](CCCCN)NC(=O)c1ccccc1F)C(=O)N[C@@H](C[C@@H]1CCNC1=O)C(=O)COC(F)(F)F [Compound 208, N-((S)-6-amino-1-(((S)-4-methyl-1-oxo-1-(((S)-3-oxo-1-((S)-2-oxopyrrolidin-3-yl)-4-(trifluoromethoxy)butan-2-yl)amino)pentan-2-yl)amino)-1-oxohexan-2-yl)-2-fluorobenzamide]
HeLa-ACE2 cells, SARS-CoV-2 infection, 24 h, bound printed in cell
  EC50: > 1 µM

## CC(C)C[C@H](NC(=O)c1ncc(-c2cccc(F)c2)[nH]1)C(=O)N[C@@H](C[C@@H]1CCNC1=O)C(=O)COC(F)(F)F [Compound 209, 5-(3-fluorophenyl)-N-((S)-4-methyl-1-oxo-1-(((S)-3-oxo-1-((S)-2-oxopyrrolidin-3-yl)-4-(trifluoromethoxy)butan-2-yl)amino)pentan-2-yl)-1H-imidazole-2-carboxamide]
[1]
  EC50: < 0.05 µM
